According to ChEMBL document CHEMBL3991601, “The target landscape of clinical kinase drugs” (Science, 2017):
The source made the active and inactive calls.

Legend:
[1] = molecular target: ALK tyrosine kinase receptor (Homo sapiens, UniProt Q9UM73); format: subcellular, K-562, COLO 205, SK-N-BE(2) and MV-4-11, Cell lysate; conditions: read-out: Kd apparent
[2] = molecular target: Cyclin-dependent kinase 10 (Homo sapiens, UniProt Q15131)
[3] = molecular target: Tyrosine-protein kinase Fgr (Homo sapiens, UniProt P09769)
[4] = molecular target: Eukaryotic peptide chain release factor GTP-binding subunit ERF3B (Homo sapiens, UniProt Q8IYD1)
[5] = molecular target: Tyrosine-protein kinase JAK2 (Homo sapiens, UniProt O60674)
Tyrosine-protein kinase JAK2, sequence (O60674 whole entry): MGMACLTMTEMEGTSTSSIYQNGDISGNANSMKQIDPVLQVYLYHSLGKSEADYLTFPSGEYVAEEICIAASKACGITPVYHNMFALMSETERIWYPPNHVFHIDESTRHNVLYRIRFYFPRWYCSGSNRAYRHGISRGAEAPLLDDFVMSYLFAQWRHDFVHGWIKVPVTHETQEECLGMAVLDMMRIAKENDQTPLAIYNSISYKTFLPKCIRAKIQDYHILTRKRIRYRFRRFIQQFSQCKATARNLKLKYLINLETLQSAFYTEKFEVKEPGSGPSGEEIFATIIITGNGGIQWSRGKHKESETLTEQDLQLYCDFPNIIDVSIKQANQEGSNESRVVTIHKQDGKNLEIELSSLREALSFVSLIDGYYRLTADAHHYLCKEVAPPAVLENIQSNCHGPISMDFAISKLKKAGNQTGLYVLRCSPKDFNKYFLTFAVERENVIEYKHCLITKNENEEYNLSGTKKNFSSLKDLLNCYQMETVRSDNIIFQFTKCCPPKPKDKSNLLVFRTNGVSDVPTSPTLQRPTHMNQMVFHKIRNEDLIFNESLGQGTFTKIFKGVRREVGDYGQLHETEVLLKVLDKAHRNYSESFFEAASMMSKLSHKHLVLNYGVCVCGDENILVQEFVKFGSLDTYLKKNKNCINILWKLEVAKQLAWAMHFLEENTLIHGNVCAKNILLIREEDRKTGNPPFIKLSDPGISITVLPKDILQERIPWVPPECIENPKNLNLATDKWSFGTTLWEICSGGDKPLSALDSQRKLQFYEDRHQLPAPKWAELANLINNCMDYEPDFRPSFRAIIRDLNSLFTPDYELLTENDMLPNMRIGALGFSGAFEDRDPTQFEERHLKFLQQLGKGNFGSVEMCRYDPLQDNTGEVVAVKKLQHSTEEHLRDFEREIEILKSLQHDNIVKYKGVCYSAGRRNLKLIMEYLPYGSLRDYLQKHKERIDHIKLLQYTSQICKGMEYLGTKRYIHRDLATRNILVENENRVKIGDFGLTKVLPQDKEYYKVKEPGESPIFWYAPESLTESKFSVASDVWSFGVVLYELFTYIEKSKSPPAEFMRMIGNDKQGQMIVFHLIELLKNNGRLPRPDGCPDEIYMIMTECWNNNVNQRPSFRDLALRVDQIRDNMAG

[6] = molecular target: T1, Dual specificity mitogen-activated protein kinase kinase 4 (Homo sapiens, UniProt P45985)
T1 sequence (P45985 whole entry): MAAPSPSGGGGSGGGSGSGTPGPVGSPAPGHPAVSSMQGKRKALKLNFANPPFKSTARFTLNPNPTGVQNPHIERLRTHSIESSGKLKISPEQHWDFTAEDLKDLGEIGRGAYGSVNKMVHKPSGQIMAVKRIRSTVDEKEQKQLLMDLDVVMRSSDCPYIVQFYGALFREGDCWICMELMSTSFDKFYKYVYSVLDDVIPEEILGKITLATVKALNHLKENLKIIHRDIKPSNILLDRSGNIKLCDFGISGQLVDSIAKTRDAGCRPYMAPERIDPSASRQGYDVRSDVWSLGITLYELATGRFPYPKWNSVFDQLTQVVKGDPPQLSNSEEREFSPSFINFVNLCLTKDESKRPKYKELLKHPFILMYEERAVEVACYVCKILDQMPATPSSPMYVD

Misshapen-like kinase 1 = Misshapen-like kinase 1 (Homo sapiens, UniProt Q8N4C8)
Misshapen-like kinase 1, sequence (Q8N4C8 whole entry): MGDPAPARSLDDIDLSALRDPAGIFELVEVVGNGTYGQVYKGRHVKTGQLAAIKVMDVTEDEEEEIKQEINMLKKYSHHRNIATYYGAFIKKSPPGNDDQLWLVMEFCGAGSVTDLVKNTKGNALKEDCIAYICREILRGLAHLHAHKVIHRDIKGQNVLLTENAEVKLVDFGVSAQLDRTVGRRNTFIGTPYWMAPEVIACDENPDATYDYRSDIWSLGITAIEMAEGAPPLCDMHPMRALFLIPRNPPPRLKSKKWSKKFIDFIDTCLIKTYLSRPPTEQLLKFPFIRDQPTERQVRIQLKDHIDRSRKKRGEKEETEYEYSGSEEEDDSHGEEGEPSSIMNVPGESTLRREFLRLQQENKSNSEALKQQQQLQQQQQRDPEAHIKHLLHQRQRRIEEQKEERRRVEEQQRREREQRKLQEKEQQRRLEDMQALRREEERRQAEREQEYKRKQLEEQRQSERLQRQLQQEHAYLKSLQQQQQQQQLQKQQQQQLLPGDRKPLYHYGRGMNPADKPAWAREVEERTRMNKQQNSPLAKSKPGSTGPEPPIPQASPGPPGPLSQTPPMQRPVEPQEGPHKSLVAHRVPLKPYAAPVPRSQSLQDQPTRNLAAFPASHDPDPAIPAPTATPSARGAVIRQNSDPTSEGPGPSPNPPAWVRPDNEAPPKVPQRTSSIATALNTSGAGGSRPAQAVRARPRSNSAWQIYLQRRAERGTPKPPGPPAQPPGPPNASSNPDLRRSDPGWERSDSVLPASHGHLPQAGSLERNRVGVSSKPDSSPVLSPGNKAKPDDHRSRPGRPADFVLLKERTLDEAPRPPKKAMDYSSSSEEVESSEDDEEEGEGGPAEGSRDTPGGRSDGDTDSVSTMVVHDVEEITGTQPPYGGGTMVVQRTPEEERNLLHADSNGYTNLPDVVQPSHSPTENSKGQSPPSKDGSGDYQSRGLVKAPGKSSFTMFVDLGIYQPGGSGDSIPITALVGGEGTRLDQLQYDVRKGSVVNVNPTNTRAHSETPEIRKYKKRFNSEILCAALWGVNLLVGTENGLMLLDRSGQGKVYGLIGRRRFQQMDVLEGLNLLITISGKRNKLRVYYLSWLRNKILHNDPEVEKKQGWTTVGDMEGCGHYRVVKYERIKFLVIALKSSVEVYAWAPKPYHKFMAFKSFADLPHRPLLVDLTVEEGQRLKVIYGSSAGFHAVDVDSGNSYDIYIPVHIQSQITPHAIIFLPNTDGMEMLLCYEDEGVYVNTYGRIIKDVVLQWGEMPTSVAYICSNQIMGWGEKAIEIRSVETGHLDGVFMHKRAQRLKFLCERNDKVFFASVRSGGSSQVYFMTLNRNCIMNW

[7] = molecular target: Serine/threonine-protein kinase PLK1 (Homo sapiens, UniProt P53350)
Serine/threonine-protein kinase PLK1, sequence (P53350 whole entry): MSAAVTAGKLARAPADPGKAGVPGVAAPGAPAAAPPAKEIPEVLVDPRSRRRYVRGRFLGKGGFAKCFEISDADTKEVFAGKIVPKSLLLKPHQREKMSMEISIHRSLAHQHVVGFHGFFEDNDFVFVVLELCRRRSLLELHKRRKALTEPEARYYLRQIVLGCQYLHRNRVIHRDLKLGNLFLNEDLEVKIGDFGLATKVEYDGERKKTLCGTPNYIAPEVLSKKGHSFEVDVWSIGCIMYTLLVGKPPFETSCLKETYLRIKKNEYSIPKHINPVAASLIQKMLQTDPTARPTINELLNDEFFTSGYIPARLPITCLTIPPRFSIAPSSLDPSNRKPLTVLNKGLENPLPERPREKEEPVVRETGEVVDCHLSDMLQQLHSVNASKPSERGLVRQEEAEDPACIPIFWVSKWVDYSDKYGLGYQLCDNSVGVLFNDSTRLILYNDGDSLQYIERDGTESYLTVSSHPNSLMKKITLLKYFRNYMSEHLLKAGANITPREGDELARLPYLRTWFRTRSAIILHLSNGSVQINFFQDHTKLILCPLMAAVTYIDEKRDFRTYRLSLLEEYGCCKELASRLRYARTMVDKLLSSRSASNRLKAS

Ephrin type-A receptor 1 = molecular target: T2, Ephrin type-A receptor 1 (Homo sapiens, UniProt P21709)
T2 sequence (P21709 whole entry): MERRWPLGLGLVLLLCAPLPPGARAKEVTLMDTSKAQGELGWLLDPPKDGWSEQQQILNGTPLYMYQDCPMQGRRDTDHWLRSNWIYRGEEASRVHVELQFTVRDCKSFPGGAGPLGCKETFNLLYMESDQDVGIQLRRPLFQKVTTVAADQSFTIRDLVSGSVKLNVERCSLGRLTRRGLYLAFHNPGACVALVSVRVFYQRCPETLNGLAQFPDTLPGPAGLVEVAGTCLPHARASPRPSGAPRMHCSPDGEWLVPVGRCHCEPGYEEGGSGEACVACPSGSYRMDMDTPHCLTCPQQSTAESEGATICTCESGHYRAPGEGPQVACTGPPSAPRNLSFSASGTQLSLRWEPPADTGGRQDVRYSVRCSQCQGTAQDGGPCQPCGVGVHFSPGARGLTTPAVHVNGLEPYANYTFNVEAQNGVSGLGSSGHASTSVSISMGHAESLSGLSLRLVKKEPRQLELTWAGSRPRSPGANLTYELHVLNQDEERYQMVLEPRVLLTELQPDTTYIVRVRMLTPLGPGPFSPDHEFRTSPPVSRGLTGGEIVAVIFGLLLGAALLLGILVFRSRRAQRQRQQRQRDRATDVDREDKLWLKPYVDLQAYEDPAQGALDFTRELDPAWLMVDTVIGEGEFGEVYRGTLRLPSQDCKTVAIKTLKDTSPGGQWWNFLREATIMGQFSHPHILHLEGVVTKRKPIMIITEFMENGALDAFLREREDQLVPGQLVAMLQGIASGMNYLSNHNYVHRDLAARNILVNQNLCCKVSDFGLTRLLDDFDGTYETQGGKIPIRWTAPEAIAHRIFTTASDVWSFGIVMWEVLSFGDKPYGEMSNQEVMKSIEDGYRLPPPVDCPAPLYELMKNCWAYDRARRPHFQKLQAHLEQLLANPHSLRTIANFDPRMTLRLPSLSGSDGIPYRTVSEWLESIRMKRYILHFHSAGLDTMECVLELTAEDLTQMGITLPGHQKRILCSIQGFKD

[8] = molecular target: T3, Tyrosine-protein kinase Mer (Homo sapiens, UniProt Q12866)
T3 sequence (Q12866 whole entry): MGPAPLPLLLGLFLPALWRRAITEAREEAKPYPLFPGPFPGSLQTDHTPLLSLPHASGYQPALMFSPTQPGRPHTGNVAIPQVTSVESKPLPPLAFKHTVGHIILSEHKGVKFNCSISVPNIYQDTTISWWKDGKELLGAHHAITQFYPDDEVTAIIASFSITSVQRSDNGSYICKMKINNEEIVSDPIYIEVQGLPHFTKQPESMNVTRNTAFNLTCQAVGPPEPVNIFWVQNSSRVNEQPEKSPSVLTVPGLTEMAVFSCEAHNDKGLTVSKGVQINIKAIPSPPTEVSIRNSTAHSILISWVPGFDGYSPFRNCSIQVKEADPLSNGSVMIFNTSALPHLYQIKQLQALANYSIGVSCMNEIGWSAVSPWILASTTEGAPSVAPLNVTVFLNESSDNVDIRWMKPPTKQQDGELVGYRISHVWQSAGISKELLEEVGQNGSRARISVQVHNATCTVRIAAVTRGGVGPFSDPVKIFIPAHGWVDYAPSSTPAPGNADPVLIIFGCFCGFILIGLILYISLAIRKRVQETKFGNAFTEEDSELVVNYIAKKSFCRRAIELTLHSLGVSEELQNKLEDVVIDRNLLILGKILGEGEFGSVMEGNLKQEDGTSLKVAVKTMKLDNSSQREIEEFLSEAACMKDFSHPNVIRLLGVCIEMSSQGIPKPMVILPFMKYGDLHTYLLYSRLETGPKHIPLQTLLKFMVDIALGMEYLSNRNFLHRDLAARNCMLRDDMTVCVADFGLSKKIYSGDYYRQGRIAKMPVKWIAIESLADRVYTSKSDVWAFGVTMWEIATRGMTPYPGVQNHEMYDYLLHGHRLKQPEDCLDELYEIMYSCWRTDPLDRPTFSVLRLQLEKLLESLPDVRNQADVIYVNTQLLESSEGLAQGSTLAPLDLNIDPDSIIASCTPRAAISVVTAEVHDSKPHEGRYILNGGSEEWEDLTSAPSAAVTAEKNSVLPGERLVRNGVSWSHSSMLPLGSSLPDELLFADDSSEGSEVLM

[9] = molecular target: Serine/threonine-protein kinase 38-like (Homo sapiens, UniProt Q9Y2H1)
Serine/threonine-protein kinase 38-like, sequence (Q9Y2H1 whole entry): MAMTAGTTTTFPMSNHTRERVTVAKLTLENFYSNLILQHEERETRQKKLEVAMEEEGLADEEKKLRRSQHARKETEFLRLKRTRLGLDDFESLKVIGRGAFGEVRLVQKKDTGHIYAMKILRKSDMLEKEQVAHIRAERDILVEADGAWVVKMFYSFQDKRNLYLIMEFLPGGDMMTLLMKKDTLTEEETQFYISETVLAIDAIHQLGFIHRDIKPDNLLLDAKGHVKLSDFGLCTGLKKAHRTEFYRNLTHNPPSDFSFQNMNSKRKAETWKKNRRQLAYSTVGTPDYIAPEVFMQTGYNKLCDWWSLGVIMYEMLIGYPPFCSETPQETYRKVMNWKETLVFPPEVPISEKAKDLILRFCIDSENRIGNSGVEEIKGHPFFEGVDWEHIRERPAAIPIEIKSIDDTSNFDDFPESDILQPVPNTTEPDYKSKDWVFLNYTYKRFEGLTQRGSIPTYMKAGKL

[10] = molecular target: Serine/threonine-protein kinase 38 (Homo sapiens, UniProt Q15208)
Serine/threonine-protein kinase 38, sequence (Q15208 whole entry): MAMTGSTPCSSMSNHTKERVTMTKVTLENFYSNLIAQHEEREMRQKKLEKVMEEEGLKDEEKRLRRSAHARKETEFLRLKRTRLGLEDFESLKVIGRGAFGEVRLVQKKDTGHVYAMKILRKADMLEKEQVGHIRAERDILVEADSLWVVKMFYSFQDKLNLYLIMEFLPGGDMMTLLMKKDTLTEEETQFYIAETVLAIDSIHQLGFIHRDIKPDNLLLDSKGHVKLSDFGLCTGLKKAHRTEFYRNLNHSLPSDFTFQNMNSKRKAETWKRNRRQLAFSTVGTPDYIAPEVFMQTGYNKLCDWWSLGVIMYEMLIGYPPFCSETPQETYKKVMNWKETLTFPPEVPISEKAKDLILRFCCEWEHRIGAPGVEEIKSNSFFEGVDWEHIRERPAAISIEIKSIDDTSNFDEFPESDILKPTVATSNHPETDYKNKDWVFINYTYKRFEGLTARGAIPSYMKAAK

[11] = molecular target: Cyclin-dependent kinase 18 (Homo sapiens, UniProt Q07002)
Cyclin-dependent kinase 18, sequence (Q07002 whole entry): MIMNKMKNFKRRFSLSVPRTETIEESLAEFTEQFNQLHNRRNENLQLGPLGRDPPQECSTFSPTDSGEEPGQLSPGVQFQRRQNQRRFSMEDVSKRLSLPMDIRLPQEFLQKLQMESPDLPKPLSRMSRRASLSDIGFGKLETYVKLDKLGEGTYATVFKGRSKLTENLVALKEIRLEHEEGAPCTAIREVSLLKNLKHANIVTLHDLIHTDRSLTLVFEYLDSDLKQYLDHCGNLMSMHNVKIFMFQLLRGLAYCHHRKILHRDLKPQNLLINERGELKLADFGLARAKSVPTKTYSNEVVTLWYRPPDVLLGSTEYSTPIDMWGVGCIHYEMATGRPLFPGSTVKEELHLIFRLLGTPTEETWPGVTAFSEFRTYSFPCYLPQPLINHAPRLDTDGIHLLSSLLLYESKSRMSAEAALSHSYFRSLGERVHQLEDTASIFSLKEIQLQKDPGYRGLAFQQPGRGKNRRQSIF
Further: in the data inactive means no Kd found up to 30 µM.

Cyclin-dependent kinase 10, sequence (Q15131 whole entry): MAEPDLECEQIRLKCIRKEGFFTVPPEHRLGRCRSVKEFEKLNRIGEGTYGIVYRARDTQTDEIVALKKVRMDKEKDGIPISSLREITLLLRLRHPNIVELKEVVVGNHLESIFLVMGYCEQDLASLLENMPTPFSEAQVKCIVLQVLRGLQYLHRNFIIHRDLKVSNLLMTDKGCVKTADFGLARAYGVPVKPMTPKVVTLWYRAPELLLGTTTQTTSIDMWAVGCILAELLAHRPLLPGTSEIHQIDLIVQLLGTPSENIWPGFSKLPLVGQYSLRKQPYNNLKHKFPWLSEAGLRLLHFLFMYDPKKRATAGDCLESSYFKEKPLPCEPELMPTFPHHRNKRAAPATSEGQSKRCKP

Row | SMILES | Kd [1] | Kd [2] | Kd [3] | Kd [4] | Kd [5] | Kd [6] | Kd (Misshapen-like kinase 1) | Kd [7] | Kd (Ephrin type-A receptor 1) | Kd [8] | Kd [9] | Kd [10] | Kd [11]
1 | Cc1cc(Nc2nc(N[C@@H](C)c3ncc(F)cn3)ncc2Cl)n[nH]1 [AZD-1480] |  | > 30 µM (inactive) |  | > 30 µM (inactive) | > 30 µM (inactive) | > 30 µM (inactive) |  | > 30 µM (inactive) | > 30 µM (inactive) |  |  |  | 
2 | CC1(COc2ccc3c(c2)ncn3-c2ccc3cccc(N4CCC(N)CC4)c3n2)COC1 [CRENOLANIB] |  | > 30 µM (inactive) |  | > 30 µM (inactive) | > 30 µM (inactive) | > 30 µM (inactive) |  | > 30 µM (inactive) | > 30 µM (inactive) |  | > 30 µM (inactive) |  | 
3 | Cc1c(Cn2c(C)nc3c(C(=O)O)cc(N4CCOCC4)cc32)cccc1C(F)(F)F [GSK-2636771] |  | > 30 µM (inactive) |  |  |  | > 30 µM (inactive) |  |  | > 30 µM (inactive) |  |  |  | > 30 µM (inactive)
4 | COc1ccc2c(OCc3nnc4ccc(-c5ccccc5)nn34)ccnc2c1 [AMG-208] |  |  | > 30 µM (inactive) |  | > 30 µM (inactive) | > 30 µM (inactive) |  |  | > 30 µM (inactive) | > 30 µM (inactive) | > 30 µM (inactive) |  | 
5 | COc1cc2nccc(Oc3ccc(NC(=O)C4(C(=O)Nc5ccc(F)cc5)CC4)cc3)c2cc1OC [CABOZANTINIB] | > 30 µM (inactive) |  |  | > 30 µM (inactive) | > 30 µM (inactive) |  |  | > 30 µM (inactive) |  |  |  |  | 
6 | Cn1cc(-c2[nH]c3cc(NC(=O)[C@H](N)C4CCCCC4)cc4c3c2C=NNC4=O)cn1 | > 30 µM (inactive) | > 30 µM (inactive) | > 30 µM (inactive) |  |  |  | 0.02 µM | > 30 µM (inactive) | > 30 µM (inactive) | 0.018 µM | > 30 µM (inactive) |  | 
7 | CNC(=O)c1ccc(Nc2ncc(C(F)(F)F)c(NCc3nccnc3N(C)S(C)(=O)=O)n2)cc1 [DEFACTINIB] |  |  |  |  |  |  |  |  | > 30 µM (inactive) |  |  |  | > 30 µM (inactive)
8 | CN1CCN(c2nc(C3=C(c4c[nH]c5ccccc45)C(=O)NC3=O)c3ccccc3n2)CC1 [SOTRASTAURIN] | > 30 µM (inactive) | > 30 µM (inactive) |  |  |  |  | 0.041 µM (active) |  | > 30 µM (inactive) | > 30 µM (inactive) | > 30 µM (inactive) |  | 
9 | c1cc(OCCN2CCCCC2)cc(-c2n[nH]c3ccc(-c4nc[nH]n4)cc23)c1 [CC-401] |  |  |  |  |  |  |  |  | > 30 µM (inactive) | > 30 µM (inactive) | > 30 µM (inactive) |  | > 30 µM (inactive)

Continued, in another order:

Row | Kd [1] | Kd [2] | Kd [3] | Kd [4] | Kd [5] | Kd [6] | Kd (Misshapen-like kinase 1) | Kd [7] | Kd (Ephrin type-A receptor 1) | Kd [8] | Kd [9] | Kd [10] | SMILES | Kd [11]
10 | > 30 µM (inactive) | > 30 µM (inactive) | > 30 µM (inactive) | > 30 µM (inactive) | > 30 µM (inactive) | > 30 µM (inactive) | > 30 µM (inactive) | > 30 µM (inactive) |  |  |  |  | O=C(NC[C@H](O)CO)c1ccncc1Nc1ccc(I)cc1F [PIMASERTIB] | 
11 |  |  | > 30 µM (inactive) |  | > 30 µM (inactive) | > 30 µM (inactive) | > 30 µM (inactive) | > 30 µM (inactive) | > 30 µM (inactive) | > 30 µM (inactive) |  |  | O=C(NOC[C@H](O)CO)c1ccc(F)c(F)c1Nc1ccc(I)cc1F [MIRDAMETINIB] | 
12 | > 30 µM (inactive) | > 30 µM (inactive) |  |  |  |  | > 30 µM (inactive) |  | > 30 µM (inactive) |  |  |  | CNC(=O)c1cc(COc2nnc(Nc3ccc(Cl)cc3)c3ccoc23)ccn1 [TELATINIB] | 
13 | > 30 µM (inactive) |  |  |  |  |  |  |  | > 30 µM (inactive) | > 30 µM (inactive) | > 30 µM (inactive) |  | FC(F)(F)c1ccc(CNc2ccc(Cc3c[nH]c4ncc(Cl)cc34)cn2)cn1 [PEXIDARTINIB] | 
14 |  | > 30 µM (inactive) |  | > 30 µM (inactive) | > 30 µM (inactive) | > 30 µM (inactive) |  |  | > 30 µM (inactive) | > 30 µM (inactive) | > 30 µM (inactive) |  | O=S(=O)(c1cccc2c(O)nccc12)N1CCCNCC1 [HYDROXYFASUDIL] | 
15 | > 30 µM (inactive) |  |  |  |  | > 30 µM (inactive) | > 30 µM (inactive) |  | > 30 µM (inactive) | > 30 µM (inactive) | > 30 µM (inactive) | > 30 µM (inactive) | C[C@@H]1COC(Nc2ccc3ncnc(Nc4ccc(OCc5nccs5)c(Cl)c4)c3c2)=N1 [VARLITINIB] | 
16 |  |  |  |  |  | > 30 µM (inactive) |  |  | > 30 µM (inactive) |  |  | > 30 µM (inactive) | CC(C)(O)CC(=O)NCCn1ccc2ncnc(Nc3ccc(Oc4cccc(C(F)(F)F)c4)c(Cl)c3)c21 [TAK-285] | > 30 µM (inactive)
17 |  |  | > 30 µM (inactive) |  | > 30 µM (inactive) |  |  | > 30 µM (inactive) | > 30 µM (inactive) | > 30 µM (inactive) | > 30 µM (inactive) | > 30 µM (inactive) | CNC(=O)c1cccc(-c2ccc3c(N4CCOC[C@@H]4C)nc(N4CCOC[C@@H]4C)nc3n2)c1 [VISTUSERTIB] | 
18 |  |  |  |  | > 30 µM (inactive) | > 30 µM (inactive) |  |  | > 30 µM (inactive) |  |  | > 30 µM (inactive) | Cn1c(=O)c(F)c(Nc2ccc(I)cc2F)c2c(=O)n(C[C@@H](O)CO)cnc21 [TAK-733] | 
19 | > 30 µM (inactive) | > 30 µM (inactive) |  |  |  | > 30 µM (inactive) |  | > 30 µM (inactive) | > 30 µM (inactive) |  |  | > 30 µM (inactive) | COc1cc2ncnc(Nc3ccc(O)cc3)c2cc1OC [WHI-P131] | 
20 | > 30 µM (inactive) |  |  |  |  |  | > 30 µM (inactive) |  | > 30 µM (inactive) | > 30 µM (inactive) | > 30 µM (inactive) |  | O[C@H]1CC[C@H](Nc2ncc3nc(Nc4c(F)cc(F)cc4F)n([C@H]4CCOC4)c3n2)CC1 [TANZISERTIB] | 
21 | 0.002 µM |  |  |  |  | > 30 µM (inactive) |  | > 30 µM (inactive) | > 30 µM (inactive) |  | > 30 µM (inactive) | > 30 µM (inactive) | NC(=O)c1ccc(N(C(N)=O)c2c(F)cccc2F)nc1-c1ccc(F)cc1F [VX-702] | 
